Calls of active or inactive are those of the source.
What was measured:
[1] = biological target: Sphingosine 1-phosphate receptor 4 (Homo sapiens, UniProt O95977); experiment: Late-stage fluorescence dose response cell-based assay to identify agonists of the Sphingosine 1-Phosphate Receptor 4 (S1P4): purchased compounds EC50. [Related pubchem assays (depositor defined):AID1509, AID1523, AID1563, AID1686, AID1701, AID1801]; type: functional
[2] = biological target: E3 ubiquitin-protein ligase XIAP (Homo sapiens, UniProt P98170); experiment: Counter Screen using XIAP-Bir3 for Chemical Antagonists of Bir1/2 domains of IAP-family anti-apoptotic proteins. [Related pubchem assays (depositor defined):AID1018, AID1449, AID1514, AID1638, AID1749, AID1750, AID488957, AID488963]
Chain of E3 ubiquitin-protein ligase XIAP (P98170 whole entry, the tested form may be a part): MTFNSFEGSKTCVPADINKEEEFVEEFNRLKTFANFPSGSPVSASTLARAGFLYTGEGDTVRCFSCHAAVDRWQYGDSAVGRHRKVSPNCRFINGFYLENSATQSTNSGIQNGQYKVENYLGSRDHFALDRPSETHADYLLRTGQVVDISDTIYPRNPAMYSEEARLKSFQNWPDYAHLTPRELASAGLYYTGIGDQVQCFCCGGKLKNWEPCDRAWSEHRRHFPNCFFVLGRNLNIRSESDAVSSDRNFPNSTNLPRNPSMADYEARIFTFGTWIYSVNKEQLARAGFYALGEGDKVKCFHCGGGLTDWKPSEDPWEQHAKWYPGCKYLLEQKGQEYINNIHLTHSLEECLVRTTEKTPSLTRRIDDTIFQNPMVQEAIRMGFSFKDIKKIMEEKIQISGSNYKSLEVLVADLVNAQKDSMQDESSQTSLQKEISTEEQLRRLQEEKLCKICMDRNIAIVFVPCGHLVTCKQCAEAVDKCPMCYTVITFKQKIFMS

[3] = biological target: T1, Carboxy-terminal domain RNA polymerase II polypeptide A small phosphatase 1 (Homo sapiens, UniProt Q9GZU7); experiment: CTDSP1 inhibitors, concentration-response, biochemical, absorbance readout, ultra-high-throughput screen actives (AID 540297); type: functional
T1 sequence (Q9GZU7 whole entry): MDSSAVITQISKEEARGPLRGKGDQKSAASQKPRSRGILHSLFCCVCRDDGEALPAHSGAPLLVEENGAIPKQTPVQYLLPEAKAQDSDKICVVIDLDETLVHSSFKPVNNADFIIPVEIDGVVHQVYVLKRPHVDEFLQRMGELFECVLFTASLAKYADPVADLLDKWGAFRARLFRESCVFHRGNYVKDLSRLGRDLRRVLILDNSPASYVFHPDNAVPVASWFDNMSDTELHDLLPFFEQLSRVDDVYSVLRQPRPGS

[4] = biological target: DNA damage-inducible transcript 3 protein (Mus musculus, UniProt P35639); type: functional, Cricetulus griseus
Chain of DNA damage-inducible transcript 3 protein (P35639 whole entry): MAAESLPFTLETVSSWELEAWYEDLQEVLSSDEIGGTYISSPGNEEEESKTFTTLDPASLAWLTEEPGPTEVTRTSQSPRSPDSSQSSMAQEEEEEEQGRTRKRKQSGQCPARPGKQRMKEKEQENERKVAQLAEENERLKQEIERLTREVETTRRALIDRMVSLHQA

[5] = blockade of melanocortin 4 receptor signaling – cell-based, plate reader, cherry pick, counter-screen for LGR2 antagonist project, dose response (AID 743444); type: functional;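 further: transfected HEK 293 cells stimulated with alpha-MSH peptide; potency of inhibitors of the alpha-MSH evoked signal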
[6] = NIH3T3 cell viability loss – ATP luminescence, mouse fibroblasts, counter-screen, dose response (AID 2010); type: functional, cell-based;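 further: cells exposed to compound for about 90 hours before reading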
[7] = non-specific 3'UTR reporter inhibition in Clone20-Shn3RL – cell-based, Renilla luciferase, cherry-picked, counter-screen for Shn3 inhibitor project, dose response (AID 624133); type: functional
[8] = biological target: T2, Ubiquitin-conjugating enzyme E2 N (Homo sapiens, UniProt P61088); type: functional
T2 sequence (P61088 whole entry): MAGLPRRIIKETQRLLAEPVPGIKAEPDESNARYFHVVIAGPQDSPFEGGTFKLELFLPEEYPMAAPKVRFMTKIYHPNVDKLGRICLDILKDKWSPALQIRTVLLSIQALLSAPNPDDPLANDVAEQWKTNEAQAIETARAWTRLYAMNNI

[9] = toxicity toward HepG2 liver cells – cell-based, plate reader, cherry-pick, antagonist series, cytotoxicity control, dose response (AID 743416); type: functional
X-box-binding protein 1 = X-box-binding protein 1 (Homo sapiens, UniProt P17861); type: functional, Cricetulus griseus;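 further: confirmatory dose-response counter-screen serving a CHOP assay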
Chain of X-box-binding protein 1 (P17861 whole entry): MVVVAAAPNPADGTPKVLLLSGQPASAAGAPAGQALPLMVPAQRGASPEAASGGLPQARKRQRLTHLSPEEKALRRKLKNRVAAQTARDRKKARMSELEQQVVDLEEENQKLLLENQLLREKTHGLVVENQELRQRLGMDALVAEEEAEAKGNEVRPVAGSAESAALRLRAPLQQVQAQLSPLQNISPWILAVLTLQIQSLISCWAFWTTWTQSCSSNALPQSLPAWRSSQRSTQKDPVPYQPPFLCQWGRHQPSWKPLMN

[10] = reduction of Shn3 3'UTR-driven luciferase in osteoblasts – cell-based, Clone20 osteoblasts, firefly luciferase, cherry-picked, dose response (AID 624132); type: functional;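 further: firefly luciferase luminescence from reporter carrying the Shn3 3'UTR in osteoblasts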
INS1 = experiment: INS-1E survival protection against cytokine death – cell-based, luminescence, retest, dose response (AID 449756); type: functional; conditions: Rattus norvegicus;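 further: cell death triggered by IL-1 beta plus TNF-alpha plus IFN-gamma mixture; protective hits raise ATP signal compared with cytokine alone wells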
[11] = NIH-3T3 fibroblast cytotoxicity, dose response, cytotoxicity control, cell-based, fluorescence, Alamar Blue, secondary assay (AID 2327); type: functional;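 further: NIH-3T3 mouse fibroblasts cultured with fluconazole at 8 µg/mL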
[12] = Trypanosoma cruzi growth suppression in host cells – NIH3T3 host cells, beta-gal luminescence, confirmation (AID 2044); type: functional, cell-based;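 further: intracellular parasites grown in NIH/3T3 mouse fibroblasts as host cells; luminescent beta-galactosidase reporter signal from transgenic T. cruzi replicating inside host cells; inhibitors lower the luminescence signal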
[13] = loss of viability in HepG2 cells – cell-based, CellTiter-Glo, cherry-picked, cytotoxicity control for Shn3 inhibitor project, dose response (AID 624134); type: functional
[14] = biological target: G-protein coupled receptor 55 (Homo sapiens, UniProt Q9Y2T6); experiment: inhibition of LPI-stimulated GPR55 beta-arrestin translocation – imaging, U2OS, beta-arrestin-GFP, LPI agonist, primary screen (AID 2013); type: functional;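 further: antagonist potency measured as reduced agonist-driven arrestin aggregation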
Chain of G-protein coupled receptor 55 (Q9Y2T6 whole entry): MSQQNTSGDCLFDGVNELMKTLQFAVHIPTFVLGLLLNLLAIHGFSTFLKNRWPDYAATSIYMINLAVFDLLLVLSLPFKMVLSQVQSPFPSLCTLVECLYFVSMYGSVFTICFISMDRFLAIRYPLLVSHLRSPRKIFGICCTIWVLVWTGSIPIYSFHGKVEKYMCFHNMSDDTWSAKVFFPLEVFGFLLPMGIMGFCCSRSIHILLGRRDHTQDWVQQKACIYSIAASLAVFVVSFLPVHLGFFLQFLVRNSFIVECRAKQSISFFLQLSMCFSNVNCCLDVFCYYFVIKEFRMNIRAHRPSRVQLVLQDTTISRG

[15] = viability loss in HEK293 cells – cell-based, plate reader, cherry-picked samples, cytotoxicity control, dose response (AID 743446); type: functional
[16] = A549 cell cytotoxicity, dose response, cytotoxicity control, plate reader, cherry-pick, antagonist series (AID 743412); type: functional, cell-based
[17] = blockers of bursicon-stimulated LGR2 cAMP reporter – cell-based, HEK293, CRE-luciferase reporter, cherry pick, set 2, dose response (AID 743343); type: functional;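 further: transfected cells were stimulated with diluted bursicon conditioned medium after compound addition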
[18] = fluconazole-exposed Candida albicans growth modulators – fluorescence, retest, confirmation (AID 2467); type: functional, cell-based
[19] = Vero E6 cell cytotoxicity, dose response, cytotoxicity control for non-replicating M. tuberculosis project, secondary assay (AID 492998); type: functional, VeroE6; conditions: Vero C1008
[20] = biological target: T3, Dual specificity protein phosphatase 3 (Homo sapiens, UniProt P51452); experiment: VHR1 phosphatase inhibitors, primary screen, biochemical, absorbance, uHTS (AID 1654)
T3 sequence (P51452 whole entry): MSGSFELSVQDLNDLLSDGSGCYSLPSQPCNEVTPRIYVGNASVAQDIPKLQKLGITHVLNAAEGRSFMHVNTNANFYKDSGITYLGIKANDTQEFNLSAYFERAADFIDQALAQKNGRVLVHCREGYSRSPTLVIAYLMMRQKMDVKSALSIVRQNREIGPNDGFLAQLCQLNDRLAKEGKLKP

[21] = biological target: T3, Dual specificity protein phosphatase 3; experiment: VHR1 phosphatase inhibitors, biochemical (AID 1878)
[22] = biological target: T4, Dual specificity protein phosphatase 6 (Rattus norvegicus, UniProt Q64346); experiment: inhibition of rat DUSP6 enzyme activity – biochemical, in vitro, primary screen (AID 425)
T4 sequence (Q64346 whole entry): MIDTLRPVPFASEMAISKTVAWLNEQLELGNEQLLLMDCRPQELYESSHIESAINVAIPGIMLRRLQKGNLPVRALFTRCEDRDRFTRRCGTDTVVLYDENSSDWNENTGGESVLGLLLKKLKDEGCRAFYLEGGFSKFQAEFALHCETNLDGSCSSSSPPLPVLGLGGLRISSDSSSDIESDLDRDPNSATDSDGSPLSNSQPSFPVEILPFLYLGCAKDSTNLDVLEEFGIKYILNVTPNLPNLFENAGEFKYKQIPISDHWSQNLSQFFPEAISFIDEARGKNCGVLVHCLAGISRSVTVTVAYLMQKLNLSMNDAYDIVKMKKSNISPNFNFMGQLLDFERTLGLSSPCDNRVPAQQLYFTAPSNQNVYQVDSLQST

[23] = biological target: T5, Tyrosine-protein phosphatase non-receptor type 22 (Homo sapiens, UniProt Q9Y2R2); experiment: SAR LYP1 Fluorescent Assay using OMFP substrate for In Vitro dose response studies - Set 3. [Related pubchem assays (depositor defined):AID1779, AID1784, AID2140, AID2686]; type: functional
T5 sequence (Q9Y2R2 whole entry): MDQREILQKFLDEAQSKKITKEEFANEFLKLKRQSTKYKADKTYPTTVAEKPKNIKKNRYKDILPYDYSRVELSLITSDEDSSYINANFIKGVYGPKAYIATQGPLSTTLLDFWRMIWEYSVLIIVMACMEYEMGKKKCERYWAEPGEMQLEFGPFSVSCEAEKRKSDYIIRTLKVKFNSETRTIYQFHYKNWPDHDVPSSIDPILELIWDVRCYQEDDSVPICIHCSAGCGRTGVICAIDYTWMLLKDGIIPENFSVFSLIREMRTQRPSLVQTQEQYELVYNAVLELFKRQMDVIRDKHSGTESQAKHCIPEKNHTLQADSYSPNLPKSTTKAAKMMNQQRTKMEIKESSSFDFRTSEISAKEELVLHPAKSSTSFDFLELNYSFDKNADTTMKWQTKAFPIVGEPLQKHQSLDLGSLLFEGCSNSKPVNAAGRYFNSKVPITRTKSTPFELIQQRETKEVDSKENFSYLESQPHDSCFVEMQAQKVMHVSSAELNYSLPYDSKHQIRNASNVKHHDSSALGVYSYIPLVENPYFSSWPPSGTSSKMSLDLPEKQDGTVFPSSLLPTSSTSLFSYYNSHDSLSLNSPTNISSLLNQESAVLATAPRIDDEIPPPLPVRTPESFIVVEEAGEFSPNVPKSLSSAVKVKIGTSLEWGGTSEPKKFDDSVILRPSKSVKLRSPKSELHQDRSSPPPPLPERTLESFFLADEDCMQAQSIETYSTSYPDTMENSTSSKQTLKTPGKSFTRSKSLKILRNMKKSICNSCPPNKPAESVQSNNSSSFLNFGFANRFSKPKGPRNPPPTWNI

[24] = biological target: T5, Tyrosine-protein phosphatase non-receptor type 22; experiment: SAR LYP1 Fluorescent Assay using pCAP substrate for In Vitro dose response studies - Set 2. [Related pubchem assays (depositor defined):AID1779, AID1784, AID2135, AID449727]; type: functional
[25] = biological target: Tyrosine-protein phosphatase non-receptor type 12 (Homo sapiens, UniProt Q05209); experiment: SAR Selectivity Analysis of small molecule inhibitors of PEST using pCAP in a fluorescence assay. [Related pubchem assays (depositor defined):AID1779, AID1784, AID2135]; type: functional
Chain of Tyrosine-protein phosphatase non-receptor type 12 (Q05209 whole entry): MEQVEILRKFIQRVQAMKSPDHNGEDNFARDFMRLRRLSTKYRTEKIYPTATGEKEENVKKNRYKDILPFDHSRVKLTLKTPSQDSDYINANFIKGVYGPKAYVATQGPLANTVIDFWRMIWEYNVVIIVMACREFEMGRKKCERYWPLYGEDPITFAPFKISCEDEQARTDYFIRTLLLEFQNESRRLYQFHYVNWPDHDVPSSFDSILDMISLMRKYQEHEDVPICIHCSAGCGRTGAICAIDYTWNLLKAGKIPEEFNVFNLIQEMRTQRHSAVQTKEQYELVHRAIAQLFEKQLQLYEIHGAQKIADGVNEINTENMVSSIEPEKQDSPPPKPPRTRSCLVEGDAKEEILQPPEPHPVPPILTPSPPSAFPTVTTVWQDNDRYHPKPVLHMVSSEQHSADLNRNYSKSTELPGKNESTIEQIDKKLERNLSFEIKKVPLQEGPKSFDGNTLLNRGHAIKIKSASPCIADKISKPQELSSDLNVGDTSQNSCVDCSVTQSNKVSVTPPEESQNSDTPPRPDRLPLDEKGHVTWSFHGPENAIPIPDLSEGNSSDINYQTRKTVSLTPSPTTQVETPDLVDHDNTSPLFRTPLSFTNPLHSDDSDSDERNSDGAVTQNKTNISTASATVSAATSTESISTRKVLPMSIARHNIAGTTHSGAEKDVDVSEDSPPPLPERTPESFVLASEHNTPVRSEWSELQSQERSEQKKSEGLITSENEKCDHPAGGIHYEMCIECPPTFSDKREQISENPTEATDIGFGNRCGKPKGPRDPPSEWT

[26] = biological target: T5, Tyrosine-protein phosphatase non-receptor type 22; experiment: SAR LYP1 Fluorescent Assay using OMFP substrate for In Vitro dose response studies - Set 2. [Related pubchem assays (depositor defined):AID1779, AID1784, AID2140, AID449726, AID488869]; type: functional
[27] = biological target: T6, Tyrosine-protein phosphatase non-receptor type 7 (Homo sapiens, UniProt P35236); experiment: inhibition of hematopoietic tyrosine phosphatase HePTP – biochemical, set 2, SAR follow-up (AID 449736); type: functional
T6 sequence (P35236 whole entry): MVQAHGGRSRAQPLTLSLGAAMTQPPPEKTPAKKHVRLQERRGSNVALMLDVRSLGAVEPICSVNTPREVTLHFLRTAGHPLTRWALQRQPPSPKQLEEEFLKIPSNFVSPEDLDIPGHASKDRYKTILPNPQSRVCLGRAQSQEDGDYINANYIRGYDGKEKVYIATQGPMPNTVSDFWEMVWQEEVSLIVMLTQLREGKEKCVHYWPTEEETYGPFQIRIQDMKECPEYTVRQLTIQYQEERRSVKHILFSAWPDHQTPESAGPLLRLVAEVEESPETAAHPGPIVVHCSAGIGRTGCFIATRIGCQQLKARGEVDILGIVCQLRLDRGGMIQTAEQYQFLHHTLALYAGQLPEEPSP

[28] = biological target: T5, Tyrosine-protein phosphatase non-receptor type 22; experiment: inhibition of lymphoid tyrosine phosphatase LYP – biochemical, pCAP fluorogenic substrate, fluorescence, set 3, SAR follow-up (AID 449727); type: functional
Coagulation factor XII = Coagulation factor XII (Homo sapiens, UniProt P00748); type: functional;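 further: activated factor XIIa alpha cleaving a fluorogenic AMC peptide substrate; inhibitor potency from loss of enzyme activity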
Chain of Coagulation factor XII (P00748 20-372 limits assumed): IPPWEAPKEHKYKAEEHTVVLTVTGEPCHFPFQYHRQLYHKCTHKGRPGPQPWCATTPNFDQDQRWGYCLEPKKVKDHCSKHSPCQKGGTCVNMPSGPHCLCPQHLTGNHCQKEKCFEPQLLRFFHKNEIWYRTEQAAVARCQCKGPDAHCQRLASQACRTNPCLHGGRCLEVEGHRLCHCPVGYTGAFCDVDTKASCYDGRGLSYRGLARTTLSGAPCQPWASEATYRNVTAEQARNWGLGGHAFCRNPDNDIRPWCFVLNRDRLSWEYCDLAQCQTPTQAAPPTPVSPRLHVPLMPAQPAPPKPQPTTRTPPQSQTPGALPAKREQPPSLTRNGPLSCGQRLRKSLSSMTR
Chain of Coagulation factor XII (P00748 373-615 limits assumed): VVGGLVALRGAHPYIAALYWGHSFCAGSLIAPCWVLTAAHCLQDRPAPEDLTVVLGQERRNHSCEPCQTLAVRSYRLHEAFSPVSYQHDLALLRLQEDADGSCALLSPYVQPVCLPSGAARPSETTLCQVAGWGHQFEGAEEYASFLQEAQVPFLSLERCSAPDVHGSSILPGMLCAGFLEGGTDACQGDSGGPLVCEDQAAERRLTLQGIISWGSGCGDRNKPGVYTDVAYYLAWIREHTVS

Bcl-2-related protein A1 = biological target: T7, Bcl-2-related protein A1 (Mus musculus, UniProt Q07440); type: functional;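 further: confirmatory dose–response counterscreen on Bfl-1, used to check hits from a UBC13 polyubiquitin inhibitor campaign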
T7 sequence (Q07440 whole entry): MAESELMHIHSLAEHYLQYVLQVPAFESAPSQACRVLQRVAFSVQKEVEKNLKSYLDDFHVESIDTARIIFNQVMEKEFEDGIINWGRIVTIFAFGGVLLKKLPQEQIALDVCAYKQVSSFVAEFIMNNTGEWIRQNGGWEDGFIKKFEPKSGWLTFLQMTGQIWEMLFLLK

[29] = biological target: T2, Ubiquitin-conjugating enzyme E2 N; type: functional; remark: listed apart in the source

Chain of Sphingosine 1-phosphate receptor 4 (O95977 whole entry): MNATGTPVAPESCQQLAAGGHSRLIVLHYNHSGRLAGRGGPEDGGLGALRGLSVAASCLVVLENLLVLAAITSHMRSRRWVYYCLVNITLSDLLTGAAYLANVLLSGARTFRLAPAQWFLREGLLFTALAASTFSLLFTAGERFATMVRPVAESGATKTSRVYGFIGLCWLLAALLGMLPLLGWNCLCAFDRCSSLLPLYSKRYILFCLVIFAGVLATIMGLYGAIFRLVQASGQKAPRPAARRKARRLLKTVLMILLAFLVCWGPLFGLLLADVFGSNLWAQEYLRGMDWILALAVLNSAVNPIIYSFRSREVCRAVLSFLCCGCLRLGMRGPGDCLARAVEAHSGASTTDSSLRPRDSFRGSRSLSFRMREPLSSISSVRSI

Cc1ccc(OCc2cc3ccc(C)c(C)c3nc2Cl)c([N+](=O)[O-])n1
EC50 [1]: > 50 µM (inactive)

Cc1coc2c(C)c3oc(=O)c(CCC(=O)N[C@@H](C)C(=O)N[C@@H](Cc4ccccc4)C(=O)O)c(C)c3cc12
IC50 [2]: > 20 µM (inactive)
IC50 [3]: 3.6 µM (active)

Cc1ccc(Nc2nc(NCc3ccco3)c3ccccc3n2)cc1.Cl
Absolute IC50 (CHOP) [4]: 10 µM
AC50 [5]: 12.3 µM (active)
EC50 [6]: > 30 µM (not active)
AC50 [7]: 3.31 µM (active)
IC50 [8]: > 20 µM (inactive)
AC50 [9]: 7.35 µM (active)
Absolute IC50 (XBP1) (X-box-binding protein 1): 10 µM
AC50 [10]: 9.84 µM (active)
EC50 (cells): 0.094 µM (active)
AC50 (INS1): 3.65 µM (active)
EC50 [11]: > 160 µM (inconclusive)
EC50 [12]: < 0.1 µM (active)
AC50 [13]: 12.6 µM (active)
IC50 [14]: 5.21 µM (active)
AC50 [15]: 16.1 µM (active)
AC50 [16]: 10.9 µM (active)
AC50 [17]: 9.43 µM (active)
EC50 [18]: 3.24 µM (active)

N=C(NOC(=O)c1cccc2ccccc12)c1cccnc1
CC50 [19]: 15 µM (active)

Cc1snc2sc(C(=O)c3ccc(F)cc3)c(N)c12
IC50 [20]: < 1.23 µM (inactive)
IC50 [21]: 2.03 µM (active)
IC50 [22]: > 158 µM (not active)

N#C/C(=C\c1ccc(OCc2ccc(F)cc2)cc1)C(=O)Nc1cccc(C(=O)O)c1
IC50 [23]: 0.967 µM (active)
IC50 [24]: 5.52 µM (active)
IC50 [25]: 0.916 µM (active)
IC50 [26]: 5.27 µM (active)
IC50 [27]: 2.03 µM (active)
IC50 [28]: 6.93 µM (active)
IC50 [3]: 4.13 µM (active)

CCCCOC(=O)c1ccc(NC(=O)C(=O)NCc2ccco2)cc1
IC50 (Coagulation factor XII): > 50 µM (inactive)

CCCCn1c(=O)[nH]c(=O)c2c1nc(-c1ccc(C#N)cc1)n2C1CCCC1
IC50 [8]: 18.7 µM (active)
IC50 (Bcl-2-related protein A1): > 20 µM (inactive)
IC50 [29]: 1.99 µM (active)

From ChEMBL document CHEMBL1201862, “PubChem BioAssay data set” (2004)
